Laboratory results taken from the COVID Moonshot data (paper PMC11187573), “Identification of SARS-CoV-2 Mpro inhibitors through deep reinforcement learning for de novo drug design and computational chemistry approaches” (RSC Medicinal Chemistry, 2024).

How the values were obtained:
[1] = molecular target: SARS-CoV-2 Main Protease (SARS-CoV-2) (UniProt P0DTD1)
[2] = molecular target: SARS-CoV-2 Main Protease (SARS-CoV-2) (UniProt P0DTD1); remark: listed apart in the source

Structure (SMILES)	inhibition ([1]; 50.0 µM) [%]	inhibition ([2]; 20.0 µM) [%]	inhibition ([2]; 50.0 µM) [%]	relative solubility at 20 uM	relative solubility at 100 uM	inhibition ([1]; 20.0 µM) [%]	IC50 [1] [µM]	IC50 [2] [µM]
Cc1ccncc1-c1nnc(-c2cccc(Cl)c2)o1	0.631	1.73	13.8	1	0.99			
CNCc1c[nH]c2ccc(F)cc12	16.1		32.7	0.99	1	3.09		
Cc1ccncc1NC(=O)[C@@H]1CNC(=O)O1 (stereo in doubt)	8.86	1.35	1.36	1	1			
Sc1nc2ccccc2c2nc(CCc3ccccc3)nn12	0	-0.837	-6.97	0.93	0.89			
C=CC(=O)N(c1ccc2ncsc2c1)C(C(=O)Nc1cccc(CC)c1)c1cccnc1 (centres undefined)		33.9	59.3	0.8	0.63	16.6	32	
NS(=O)(=O)c1ccc(N2CCC(CN3CCCCC3)CC2)cc1	22.7	-23.1	-2.58	1	1.01			
CC(C(=O)O)c1ccc2c(c1)[nH]c1ccc(Cl)cc12 (centres undefined)		-0.548	3.97	1	0.98	0		
Cc1ccncc1NC(=O)Nc1cccc(Cl)c1	64.1	32.1	58.7	0.99	0.96	25.6	45.7	
Cc1ccncc1NC(=O)CCNC(=O)c1ccccc1F	0		-15.8	1	1	0		
CN(C)c1ccc(N(Cc2ccsc2)C(=O)Cn2nnc3ccccc32)cc1	90.3	84.4	90.5	0.92	0.48		5.37	
C=CC(=O)N(c1ccc(C(C)C)nc1)C(C(=O)NC(C)(C)C)c1cccnc1 (centres undefined)		11.7	11.4	1	0.99	0		
Cc1ccnn1CC(=O)NCC(NC(=O)C(C)C#N)c1ccccc1 (centres undefined)	-26.1	-13.2	-6.86	0.99	1			
O=C(NC1CCCCC1NC(=O)c1ccncc1)c1ccccc1 (centres undefined)	0		-22.4	1	1	0		
C=CC(=O)N1CCCN(Cc2ccccc2)CC1		0.947	9.99	1	1	0		
CC(C)c1scnc1NC(=O)C1CCOc2ccc(Cl)cc21 (centres undefined)	0	10	6.85	1	0.99			
Cc1cnc(CC(=O)Nc2cccnc2)o1	0		-9.91	0.99	1	0		
Cc1ccncc1NC(=O)CCNc1ccc(S(N)(=O)=O)cc1	0		-27.1	1	1	0		
Cc1cnn(-c2ccncc2NC(=O)Cn2cc(C)c3ccccc32)c1	0	-8.61	-0.417	0.59	0.1			
NS(=O)(=O)c1ccc(N2CCC(CO)CC2)cc1	2.83	3.95	7.03	1	1	-1.13		

Structure (SMILES)	inhibition ([1]; 50.0 µM) [%]	inhibition ([2]; 20.0 µM) [%]	inhibition ([2]; 50.0 µM) [%]	relative solubility at 20 uM	relative solubility at 100 uM	inhibition ([1]; 20.0 µM) [%]	IC50 [1] [µM]	IC50 [2] [µM]
CC(=O)N1CCN(Cc2cn(-c3cccc(S(N)(=O)=O)c3)nn2)CC1	5.73	-2.75	1.36	0.95	0.97	2.3		
COc1ccccc1OCCNC(=O)c1cc(=O)[nH]c2ccccc12	83.8	83.7	92.7	0.99	0.96	70.1	3.46	7.23
O=S(=O)(Cc1ccc(F)cc1)Nc1cccnc1	-5.13	6.67	-13.8	1	1			
CC(=O)Nc1ccc(C#N)cc1CN1CCN(C(=O)CCl)CC1		20.6	43.4	1	1.01	59.2	17.5	
COCc1cc(Cl)cc(CN2CCN(C(=O)CCl)CC2)c1	118	97.6	99.9	0.98	0.99		1.31	
Cc1cccc(-c2nnnn2C2CC2C)c1NC(=O)CCc1cccnc1 (centres undefined)	13.5		-16.5	1	1	0		
CC(c1cccc(NC(=O)Cc2cnccc2Cl)c1)N1CCOCC1 (centres undefined)	3.87	2.12	3.92	0.97	0.92	0		
Cc1cccc(C)c1OCC(=O)NCCc1ccccc1	0	1.78	7.25	1	0.98	0		
Cc1ccn(CC(=O)NCc2nccn2CCc2ccccc2)c(=O)c1	0	-14.1	-2.52	1	1			
Cc1cccc(C2CN(C(=O)CCl)Cc3ccccc32)c1 (centres undefined)	53.8	98.1	99.7	1	0.93		0.42	
CS(=O)(=O)c1oc(-c2ccc(F)cc2)nc1S(=O)(=O)c1ccc(Cl)cc1	0	10.8	11	0.78	0.45			
NS(=O)(=O)c1ccc(N2CCC(Nc3ccc(F)cc3)CC2)cc1	50.2		8.08	1	0.89	3.79	39.2	
O=C(NCc1ccc(Cl)cc1CN1CCN(C(=O)CCl)CC1)[C@@H]1CCCOC1 (stereo in doubt)	100	56.7	77.9	1	1		20.1	
CC(C)NC1CCN(c2ccc(S(N)(=O)=O)cc2)CC1	0.505	-1.27	-1.56	1	0.98	0.29		
CCCN(CC1COc2ccccc2O1)C(=O)c1cc(=O)[nH]c2ccc(Cl)cc12 (centres undefined)	0	-8.21	-15.6	0.98	0.89			
COc1ccc(C2CC(c3cccs3)=NN2C(=O)CCl)cc1OC (centres undefined)	91.1	99.4	99.2	0.95	0.83	95.7	0.969	
O=C(Cc1ccc(F)cc1)Nc1cccc2cc[nH]c12	0	-2.43	-33.9	1	0.88			
Cc1cc(C)c(C)c(S(=O)(=O)N2CCN(C(=O)c3cc[nH]c(=O)c3)CC2)c1C	0	-1.5	5.56	0.99	0.98			
O=C(Cc1cccc(Cl)c1)Nc1cnns1	48.7	4.12	3.34	0.99	0.99			
